Data published in PubChem BioAssay AID330 (DTP/NCI, 2004).
Where “and” joins values, the source holds several entries; their conditions need not be identical. Identical values can stand only once. Inconclusive results and toxic doses are left out. Rule for the calls: active = survival T/C of 150% or more; inactive = T/C below 125% in these data.

Test system: P388 leukemia ip, CD2F1 mice, survival T/C
Experiment: NCI In Vivo Anticancer Drug Screen. Data for tumor model P388 Leukemia (intraperitoneal) in CD2F1 (CDF1) mice
Conditions: endpoint: median survival time, higher = longer survival
Procedure: The antitumor activity of compounds was measured in mice bearing transplantable tumors. Survival or tumor size were measured and the results are expressed as the measurement made in the treated group (T) divided by the measurement made in the vehicle treated control group (C). The tumor model used in this assay is P388 Leukemia (intraperitoneal) in CD2F1 (CDF1) mice

[1] = dose: 100.0 mg/kg/injection, schedule: Q01DX005 (ip), vehicle: Klucel (hydroxypropylcellulose) (HPC)
[2] = dose: 200.0 mg/kg/injection, schedule: Q01DX005 (ip), vehicle: Klucel (hydroxypropylcellulose) (HPC)
[3] = dose: 100.0 mg/kg/injection, schedule: Q01DX009 (ip), vehicle: saline with Tween-80
[4] = dose: 200.0 mg/kg/injection, schedule: Q01DX009 (ip), vehicle: saline with Tween-80
[5] = dose: 5.0 mg/kg/injection, schedule: Q01DX009 (ip), vehicle: saline
[6] = dose: 20.0 mg/kg/injection, schedule: Q01DX009 (ip), vehicle: saline
[7] = dose: 50.0 mg/kg/injection, schedule: Q01DX005 (ip), vehicle: saline with Tween-80
[8] = dose: 12.5 mg/kg/injection, schedule: Q01DX009 (ip), vehicle: water

Measured: T/C

O=C1Cc2nc3ccccc3nc2CC(=O)c2ccccc21
inactive: dose: 50.0 mg/kg/injection, schedule: Q04DX002 (ip), vehicle: saline with Tween-80 90 % of control | dose: 100.0 mg/kg/injection, schedule: Q04DX002 (ip), vehicle: saline with Tween-80 87 % of control | dose: 200.0 mg/kg/injection, schedule: Q04DX002 (ip), vehicle: saline with Tween-80 90 % of control

CCOC(=O)C1=C(C)N(C)C(C)=C(C(=O)OCC)C1c1ccc(Cl)cc1
inactive: dose: 25.0 mg/kg/injection, schedule: Q01DX009 (ip), vehicle: distilled water + Tween-80 99 % of control | dose: 50.0 mg/kg/injection, schedule: Q01DX009 (ip), vehicle: distilled water + Tween-80 97 % of control | dose: 100.0 mg/kg/injection, schedule: Q01DX009 (ip), vehicle: distilled water + Tween-80 89 % of control | dose: 400.0 mg/kg/injection, schedule: Q01DX009 (ip), vehicle: distilled water + Tween-80 98 % of control

O=C(O)C1CCCN1C(=O)OCc1ccccc1 (stereo not given)
inactive: [1] 87 % of control | [2] 89 % of control | dose: 400.0 mg/kg/injection, schedule: Q01DX005 (ip), vehicle: Klucel (hydroxypropylcellulose) (HPC) 91 % of control

CN1CCC(C(C)(C)C)CC1
inactive: dose: 25.0 mg/kg/injection, schedule: Q01DX005 (ip), vehicle: Klucel (hydroxypropylcellulose) (HPC) 89 % of control | dose: 50.0 mg/kg/injection, schedule: Q01DX005 (ip), vehicle: Klucel (hydroxypropylcellulose) (HPC) 94 % of control | [1] 93 % of control | [2] 98 % of control

O=c1cc[nH]c(=S)[nH]1.[Cu+2]
inactive: dose: 1.56 mg/kg/injection, schedule: Q01DX009 (ip), vehicle: DMSO 100 % of control | dose: 3.12 mg/kg/injection, schedule: Q01DX009 (ip), vehicle: DMSO 99 % of control | dose: 6.25 mg/kg/injection, schedule: Q01DX009 (ip), vehicle: DMSO 86 % of control | dose: 12.5 mg/kg/injection, schedule: Q01DX009 (ip), vehicle: DMSO 100 % of control

COc1ccc(C(C)c2cc3c(cc2OC)OCO3)cc1 (stereo not given)
inactive: dose: 12.5 mg/kg/injection, schedule: Q01DX005 (ip), vehicle: saline with Tween-80 101 % of control and 109 % of control and 95 % of control | dose: 25.0 mg/kg/injection, schedule: Q01DX005 (ip), vehicle: saline + alcohol 92 % of control | dose: 50.0 mg/kg/injection, schedule: Q01DX005 (ip), vehicle: saline + alcohol 91 % of control | dose: 100.0 mg/kg/injection, schedule: Q01DX005 (ip), vehicle: saline + alcohol 93 % of control | dose: 200.0 mg/kg/injection, schedule: Q01DX005 (ip), vehicle: saline + alcohol 106 % of control

CN(O)C1=c2ccccc2=NC1=O
inactive: dose: 50.0 mg/kg/injection, schedule: Q01DX009 (ip), vehicle: saline with Tween-80 91 % of control | [3] 92 % of control | [4] 114 % of control

Nc1ccncc1N
inactive: dose: 2.5 mg/kg/injection, schedule: Q01DX009 (ip), vehicle: saline 94 % of control | dose: 3.12 mg/kg/injection, schedule: Q01DX009 (ip), vehicle: saline 101 % of control | [5] 106 % of control | dose: 6.25 mg/kg/injection, schedule: Q01DX009 (ip), vehicle: saline 97 % of control | dose: 10.0 mg/kg/injection, schedule: Q01DX009 (ip), vehicle: saline 100 % of control | dose: 12.5 mg/kg/injection, schedule: Q01DX009 (ip), vehicle: saline 103 % of control | [6] 93 % of control

CC1CCC(C)N(C)C1 (stereo not given)
inactive: dose: 25.0 mg/kg/injection, schedule: Q01DX005 (ip), vehicle: saline with Tween-80 98 % of control | [7] 102 % of control

O=NNc1ccc(Br)cn1
active: dose: 6.25 mg/kg/injection, schedule: Q01DX008 (ip), vehicle: water 154 % of control | [8] 184 % of control | dose: 25.0 mg/kg/injection, schedule: Q01DX008 (ip), vehicle: water 181 % of control
inactive: dose: 1.5 mg/kg/injection, schedule: Q01DX008 (ip), vehicle: water 100 % of control | dose: 1.56 mg/kg/injection, schedule: Q01DX009 (ip), vehicle: water 115 % of control

Cc1cc(C)nc(N/N=C/c2c(Cl)cccc2Cl)n1
inactive: dose: 50.0 mg/kg/injection, schedule: Q04DX003 (ip), vehicle: Klucel (hydroxypropylcellulose) (HPC) 99 % of control | dose: 100.0 mg/kg/injection, schedule: Q04DX003 (ip), vehicle: Klucel (hydroxypropylcellulose) (HPC) 99 % of control | dose: 200.0 mg/kg/injection, schedule: Q04DX003 (ip), vehicle: Klucel (hydroxypropylcellulose) (HPC) 97 % of control

CC1C(O)CCC2=CC(=O)C3(C4(CO)CO4)OC3C21C (stereo not given)
inactive: dose: 15.0 mg/kg/injection, schedule: Q01DX005 (ip), vehicle: saline 102 % of control | dose: 30.0 mg/kg/injection, schedule: Q01DX005 (ip), vehicle: saline 91 % of control | dose: 60.0 mg/kg/injection, schedule: Q01DX005 (ip), vehicle: saline 108 % of control | dose: 62.5 mg/kg/injection, schedule: Q01DX005 (ip), vehicle: saline 103 % of control | dose: 120.0 mg/kg/injection, schedule: Q01DX005 (ip), vehicle: saline 98 % of control | dose: 125.0 mg/kg/injection, schedule: Q01DX005 (ip), vehicle: saline 110 % of control | dose: 250.0 mg/kg/injection, schedule: Q01DX005 (ip), vehicle: saline 114 % of control

COc1ccc(Cc2cc(O)c(OC)cc2O)cc1
inactive: dose: 0.32 mg/kg/injection, schedule: Q01DX009 (ip), vehicle: saline with Tween-80 104 % of control | dose: 0.63 mg/kg/injection, schedule: Q01DX009 (ip), vehicle: saline with Tween-80 107 % of control | dose: 1.25 mg/kg/injection, schedule: Q01DX009 (ip), vehicle: saline with Tween-80 104 % of control | dose: 2.5 mg/kg/injection, schedule: Q01DX009 (ip), vehicle: saline with Tween-80 111 % of control | dose: 5.0 mg/kg/injection, schedule: Q01DX009 (ip), vehicle: saline with Tween-80 100 % of control and 108 % of control | dose: 10.0 mg/kg/injection, schedule: Q01DX009 (ip), vehicle: saline with Tween-80 106 % of control

CC(=O)OCC12C(OC(C)=O)CC(C)C3(CC(c4ccoc4)OC3=O)C1CCC(=O)C2(O)CCl (stereo not given)
inactive: dose: 0.75 mg/kg/injection, schedule: Q01DX005 (ip), vehicle: saline + alcohol 106 % of control | dose: 1.5 mg/kg/injection, schedule: Q01DX005 (ip), vehicle: saline + alcohol 103 % of control | dose: 3.0 mg/kg/injection, schedule: Q01DX005 (ip), vehicle: saline + alcohol 106 % of control | dose: 6.0 mg/kg/injection, schedule: Q01DX005 (ip), vehicle: saline + alcohol 108 % of control | dose: 12.0 mg/kg/injection, schedule: Q01DX005 (ip), vehicle: saline + alcohol 106 % of control | dose: 12.5 mg/kg/injection, schedule: Q01DX005 (ip), vehicle: saline + Tween-80 + alcohol 92 % of control | dose: 25.0 mg/kg/injection, schedule: Q01DX005 (ip), vehicle: saline + Tween-80 + alcohol 98 % of control | dose: 100.0 mg/kg/injection, schedule: Q01DX005 (ip), vehicle: saline + Tween-80 + alcohol 89 % of control | dose: 150.0 mg/kg/injection, schedule: Q01DX005 (ip), vehicle: saline + Tween-80 + alcohol 91 % of control

CN(C)CC(O)Cn1ccnc1[N+](=O)[O-] (stereo not given)
inactive: [8] 101 % of control | dose: 25.0 mg/kg/injection, schedule: Q01DX009 (ip), vehicle: water 101 % of control | dose: 50.0 mg/kg/injection, schedule: Q01DX009 (ip), vehicle: water 111 % of control | dose: 100.0 mg/kg/injection, schedule: Q01DX009 (ip), vehicle: water 111 % of control | dose: 200.0 mg/kg/injection, schedule: Q01DX009 (ip), vehicle: water 113 % of control

CCOP(=O)(N1CC1(C)C)N1CC1(C)C (stereo not given)
active: [6] 159 % of control | dose: 30.0 mg/kg/injection, schedule: Q01DX009 (ip), vehicle: saline 194 % of control | dose: 50.0 mg/kg/injection, schedule: Q01DX009 (ip), vehicle: saline 252 % of control
inactive: [5] 109 % of control

OCCc1cc[nH]c1
inactive: [3] 104 % of control | [4] 104 % of control | dose: 400.0 mg/kg/injection, schedule: Q01DX009 (ip), vehicle: saline with Tween-80 95 % of control

O=[n+]1c2ccccc2n([O-])c2cn(-c3ccccc3)c(-c3ccccc3)c21
inactive: [7] 100 % of control | dose: 100.0 mg/kg/injection, schedule: Q01DX005 (ip), vehicle: saline with Tween-80 100 % of control | dose: 200.0 mg/kg/injection, schedule: Q01DX005 (ip), vehicle: saline with Tween-80 101 % of control
